In this experiment the target is T1, N-terminal HiBiT tagged BCL6 (Homo sapiens, UniProt P41182).
T1 construct: expressed in transfected cells; host or cells: HT1080 (ATCC CCL-121), stably transduced with lentivirus pLV-UBC-N-HiBiT-BCL6-PGK-puro
Put plainly: HiBiT based degradation assay. It counts as cell-based. The settings on record: HT1080 cells expressing N-terminal HiBiT tagged BCL6, 5 hours of incubation; for Ymin (5 hr): BCL6 degradation normalized with DMSO control; for DC50: four-parameter logistic model, read-out: EC50 (5 hr). From the text: Human BCL6 protein coding open reading frame fused with N-terminal HiBiT coding sequence was synthesized from Integrated DNA Technologies (IDT). Next, the N-HiBiT-BCL6 sequence was cloned into pLV-UBC-PGK-Puro, a lentivirus plasmid purchased from Vectorbuilder, to generate pLV-UBC-N-HiBiT-BCL6-PGK-puro. Lentiviral particles were generated from Lenti-X™ 293T cells (Clontech) by co-transfection of pLV-UBC-N-HiBiT-BCL6-PGK-puro plasmids and lentiviral packaging plasmid mix (Cellecta). HT1080 [HT1080] (ATCC CCL-121) cells were infected with the lentivirus, and HT1080 cells stably integrated with the lentiviral vectors were established by incubation with 1 μg/mL puromycin (Thermofisher).
HT1080 cells expressing N-terminal HiBiT tagged BCL6 were dispensed into a 384-well plate pre-spotted with compounds at varying concentrations. Five thousand cells were seeded into each well in 40 μL of RPMI 1640 media plus 10% Fetal Bovine Serum (10082-147, Thermofisher). After 5 hours of incubation at 37° C. with 5% CO2, 30 μL of the NANO-GLOR HiBiT Lytic Detection System working solution (Promega) was added to each well and incubated at room temperature for 15 min. After incubation, luminescence was read on a PHERAstar FSX Plate Reader (BMG). BCL6 degradation at each indicated concentration was normalized with DMSO control. The BCL6 degradation curves were plotted using a four-parameter logistic model.
In general terms: HiBiT is a short tag that completes a luciferase, so light tracks the accessible tagged protein.

Where only a bound is given, the exact number is not on record here.

With `CNC(=O)COc1cc2cc(Nc3nc(N4CCC(F)(CN5CCC(c6cccc7c(C8CCC(=O)NC8=O)nn(C)c67)CC5)CC4)ncc3Cl)cnc2n(C(C)C)c1=O` (stereo not shown) [Compound 161, 2-((6-((5-chloro-2-(4-((4-(3-(2,6-dioxopiperidin-3-yl)-1-methyl-1H-indazol-7-yl)piperidin-1-yl)methyl)-4-fluoropiperidin-1-yl)pyrimidin-4-yl)amino)-1-isopropyl-2-oxo-1,2-dihydro-1,8-naphthyridin-3-yl)oxy)-N-methylacetamide], the “Ymin (5 hr)” value is “++++ (Ymin < 30%)” and the DC50 fell in the range of 10 to 100 nM.

As for `CNC(=O)COc1cc2cc(Nc3nc(N4CCC5(CC4)CC(N4CCN(c6cccc7c(C8CCC(=O)NC8=O)nn(C)c67)CC4)C5)ncc3Cl)cnc2n(C(C)C)c1=O` (stereo not shown) [Compound 230, 2-[[6-[[5-chloro-2-[2-[4-[3-(2,6-dioxo-3-piperidyl)-1-methyl-indazol-7-yl]piperazin-1-yl]-7-azaspiro [3.5]nonan-7-yl]pyrimidin-4-yl]amino]-1-isopropyl-2-oxo-1,8-naphthyridin-3-yl]oxy]-N-methyl-acetamide], the “Ymin (5 hr)” value was “+++ (30% ≤ Ymin < 50%)” and the DC50 is 10 to 100 nM.

For `CNC(=O)COc1cc2cc(Nc3nc(N4CCC(CN5CCN(c6ccc7c(C8CCC(=O)NC8=O)nn(C)c7c6)C[C@H]5C)CC4)ncc3Cl)cnc2n(C(C)C)c1=O` (stereo partly drawn) [Compound 215a, 2-((6-((5-chloro-2-(4-(((2R)-4-(3-(2,6-dioxopiperidin-3-yl)-1-methyl-1H-indazol-6-yl)-2-methylpiperazin-1-yl)methyl)piperidin-1-yl)pyrimidin-4-yl)amino)-1-isopropyl-2-oxo-1,2-dihydro-1,8-naphthyridin-3-yl)oxy)-N-methylacetamide], the “Ymin (5 hr)” value is given as “+++ (30% ≤ Ymin < 50%)” and the DC50 was less than 10 nM.

For the molecule `CNC(=O)COc1cc2cc(Nc3nc(N4CCN(CC5CCN(c6cccc7c(C8CCC(=O)NC8=O)nn(C)c67)CC5)CC4)ncc3Cl)cnc2n(CCO)c1=O` (stereo not shown) [Compound 186, 2-((6-((5-chloro-2-(4-((1-(3-(2,6-dioxopiperidin-3-yl)-1-methyl-1H-indazol-7-yl)piperidin-4-yl)methyl)piperazin-1-yl)pyrimidin-4-yl)amino)-1-(2-hydroxyethyl)-2-oxo-1,2-dihydro-1,8-naphthyridin-3-yl)oxy)-N-methylacetamide], the “Ymin (5 hr)” value is “++++ (Ymin < 30%)” and the DC50 was 10 to 100 nM.

`CNC(=O)COc1cc2cc(Nc3nc(N4CCC(CN5CCN(c6ccc7c(C8CCC(=O)NC8=O)nn(C)c7c6)CC5(C)C)CC4)ncc3Cl)cnc2n(C(C)C)c1=O` (stereo not shown) [Compound 196, 2-((6-((5-chloro-2-(4-((4-(3-(2,6-dioxopiperidin-3-yl)-1-methyl-1H-indazol-6-yl)-2,2-dimethylpiperazin-1-yl)methyl)piperidin-1-yl)pyrimidin-4-yl)amino)-1-isopropyl-2-oxo-1,2-dihydro-1,8-naphthyridin-3-yl)oxy)-N-methylacetamide]: the “Ymin (5 hr)” value was “+++ (30% ≤ Ymin < 50%)” and the DC50 is less than 10 nM.

As for `CNC(=O)COc1cc2cc(Nc3nc(N4CCN(CC5CCN(c6cccc7c(C8CCC(=O)NC8=O)nn(C)c67)CC5)C[C@H]4C)ncc3Cl)cnc2n(C(C)C)c1=O` (stereo partly drawn) [Compound 168b, 2-[[6-[[5-chloro-2-[(2R)-4-[[1-[3-(2,6-dioxo-3-piperidyl)-1-methyl-indazol-7-yl]-4-piperidyl]methyl]-2-methyl-piperazin-1-yl]pyrimidin-4-yl]amino]-1-isopropyl-2-oxo-1,8-naphthyridin-3-yl]oxy]-N-methyl-acetamide], the “Ymin (5 hr)” value is recorded as “+++ (30% ≤ Ymin < 50%)” and the DC50 lay in the range of 10 to 100 nM.

As for `CNC(=O)COc1cc2cc(Nc3nc(N4CCC(CN5CCN(c6ccc7c(C8CCC(=O)NC8=O)nn(C)c7c6)CC5)CC4)ncc3Cl)cnc2n(C(C)C)c1=O` (stereo not shown) [Compound 214, 2-((6-((5-chloro-2-(4-((4-(3-(2,6-dioxopiperidin-3-yl)-1-methyl-1H-indazol-6-yl)piperazin-1-yl)methyl)piperidin-1-yl)pyrimidin-4-yl)amino)-1-isopropyl-2-oxo-1,2-dihydro-1,8-naphthyridin-3-yl)oxy)-N-methylacetamide], the “Ymin (5 hr)” value is reported as “+++ (30% ≤ Ymin < 50%)” and the DC50 is less than 10 nM.

For the molecule `CNC(=O)COc1cc2cc(Nc3nc(N4CCN(C(=O)N5CCN(c6cccc7c(C8CCC(=O)NC8=O)nn(C)c67)CC5)CC4)ncc3Cl)cnc2n(C(C)C)c1=O` (stereo not shown) [Compound 223, 2-[[6-[[5-chloro-2-[4-[4-[3-(2,6-dioxo-3-piperidyl)-1-methyl-indazol-7-yl]piperazine-1-carbonyl]piperazin-1-yl]pyrimidin-4-yl]amino]-1-isopropyl-2-oxo-1,8-naphthyridin-3-yl]oxy]-N-methyl-acetamide], the “Ymin (5 hr)” value was “++++ (Ymin < 30%)” and the DC50 is less than 10 nM.

As to `CNC(=O)COc1cc2cc(Nc3nc(N4CC5(CC[C@@H](Nc6ccc7c(C8CCC(=O)NC8=O)nn(C)c7c6)[C@@H](C(F)(F)F)C5)C4)ncc3Cl)cnc2n(C(C)C)c1=O` (relative stereo) [Compound 221a, 2-((6-((5-chloro-2-((6S,7R)-7-((3-(2,6-dioxopiperidin-3-yl)-1-methyl-1H-indazol-6-yl)amino)-6-(trifluoromethyl)-2-azaspiro[3.5]nonan-2-yl)pyrimidin-4-yl)amino)-1-isopropyl-2-oxo-1,2-dihydro-1,8-naphthyridin-3-yl)oxy)-N-methylacetamide], the “Ymin (5 hr)” value is “++++ (Ymin < 30%)” and the DC50 was less than 10 nM.

In the case of `CNC(=O)COc1cc2cc(Nc3nc(N4CCC(CN5CC6CC(C5)N6c5cccc6c(C7CCC(=O)NC7=O)nn(C)c56)CC4)ncc3Cl)cnc2n(C(C)C)c1=O` (stereo not shown) [Compound 187, 2-[[6-[[5-chloro-2-[4-[[6-[3-(2,6-dioxo-3-piperidyl)-1-methyl-indazol-7-yl]-3,6-diazabicyclo[3.1.1]heptan-3-yl]methyl]-1-piperidyl]pyrimidin-4-yl]amino]-1-isopropyl-2-oxo-1,8-naphthyridin-3-yl]oxy]-N-methyl-acetamide], the “Ymin (5 hr)” value is recorded as “+++ (30% ≤ Ymin < 50%)” and the DC50 lay in the range of 10 to 100 nM.

On to `CNC(=O)COc1cc2cc(Nc3nc(N4CCN(CC5CCN(c6cccc7c(C8CCC(=O)NC8=O)nn(C)c67)CC5(F)F)CC4)ncc3Cl)cnc2n(C(C)C)c1=O` (stereo not shown) [Compound 241, 2-((6-((5-chloro-2-(4-((1-(3-(2,6-dioxopiperidin-3-yl)-1-methyl-1H-indazol-7-yl)-3,3-difluoropiperidin-4-yl)methyl)piperazin-1-yl)pyrimidin-4-yl)amino)-1-isopropyl-2-oxo-1,2-dihydro-1,8-naphthyridin-3-yl)oxy)-N-methylacetamide], for which the “Ymin (5 hr)” value is recorded as “++++ (Ymin < 30%)” and the DC50 was in the range of 10 to 100 nM.

For `CNC(=O)COc1cc2cc(Nc3nc(N4CC5(CC[C@H](Nc6ccc7c(C8CCC(=O)NC8=O)nn(C)c7c6)[C@H](C)C5)C4)ncc3Cl)cnc2n(C)c1=O` (relative stereo) [Compound 156b, 2-((6-((5-chloro-2-((6R,7S)-7-((3-(2,6-dioxopiperidin-3-yl)-1-methyl-1H-indazol-6-yl)amino)-6-methyl-2-azaspiro[3.5]nonan-2-yl)pyrimidin-4-yl)amino)-1-methyl-2-oxo-1,2-dihydro-1,8-naphthyridin-3-yl)oxy)-N-methylacetamide], the “Ymin (5 hr)” value was “++++ (Ymin < 30%)” and the DC50 was less than 10 nM.

On to `CNC(=O)COc1cc2cc(Nc3nc(N4CCN(c5cccc6c(C7CCC(=O)NC7=O)nn(C)c56)CC4)ncc3Cl)cnc2n(C(C)C)c1=O` (stereo not shown) [Compound 166, 2-[[6-[[5-chloro-2-[4-[3-(2,6-dioxo-3-piperidyl)-1-methyl-indazol-7-yl]piperazin-1-yl]pyrimidin-4-yl]amino]-1-isopropyl-2-oxo-1,8-naphthyridin-3-yl]oxy]-N-methyl-acetamide], for which the “Ymin (5 hr)” value is “+++ (30% ≤ Ymin < 50%)” and the DC50 was less than 10 nM.

Take `CNC(=O)COc1cc2cc(Nc3nc(N4CC5(CCC(Nc6ccc7c(C8CCC(=O)NC8=O)nn(C)c7c6)CC5)C4)ncc3Cl)cnc2n(C(C)C)c1=O` (stereo not shown) [Compound 182, 2-((6-((5-chloro-2-(7-((3-(2,6-dioxopiperidin-3-yl)-1-methyl-1H-indazol-6-yl)amino)-2-azaspiro[3.5]nonan-2-yl)pyrimidin-4-yl)amino)-1-isopropyl-2-oxo-1,2-dihydro-1,8-naphthyridin-3-yl)oxy)-N-methylacetamide]: the “Ymin (5 hr)” value is on record as “++++ (Ymin < 30%)” and the DC50 is less than 10 nM.
